Consider twelve compounds from patent US20240116985A1, “STAPLED PEPTIDES AND METHODS THEREOF” (priority 2020, published 2024).

The structures appear in SMILES notation. Where two headings read alike, the source gives them in different places.

Series [1] deals with T1, full-length beta-Catenin (Uniprot ID P35222) (Homo sapiens, UniProt P35222).
T1 construct: 10 nM full-length beta-Catenin (Uniprot ID P35222)
T1 sequence (P35222 1-781): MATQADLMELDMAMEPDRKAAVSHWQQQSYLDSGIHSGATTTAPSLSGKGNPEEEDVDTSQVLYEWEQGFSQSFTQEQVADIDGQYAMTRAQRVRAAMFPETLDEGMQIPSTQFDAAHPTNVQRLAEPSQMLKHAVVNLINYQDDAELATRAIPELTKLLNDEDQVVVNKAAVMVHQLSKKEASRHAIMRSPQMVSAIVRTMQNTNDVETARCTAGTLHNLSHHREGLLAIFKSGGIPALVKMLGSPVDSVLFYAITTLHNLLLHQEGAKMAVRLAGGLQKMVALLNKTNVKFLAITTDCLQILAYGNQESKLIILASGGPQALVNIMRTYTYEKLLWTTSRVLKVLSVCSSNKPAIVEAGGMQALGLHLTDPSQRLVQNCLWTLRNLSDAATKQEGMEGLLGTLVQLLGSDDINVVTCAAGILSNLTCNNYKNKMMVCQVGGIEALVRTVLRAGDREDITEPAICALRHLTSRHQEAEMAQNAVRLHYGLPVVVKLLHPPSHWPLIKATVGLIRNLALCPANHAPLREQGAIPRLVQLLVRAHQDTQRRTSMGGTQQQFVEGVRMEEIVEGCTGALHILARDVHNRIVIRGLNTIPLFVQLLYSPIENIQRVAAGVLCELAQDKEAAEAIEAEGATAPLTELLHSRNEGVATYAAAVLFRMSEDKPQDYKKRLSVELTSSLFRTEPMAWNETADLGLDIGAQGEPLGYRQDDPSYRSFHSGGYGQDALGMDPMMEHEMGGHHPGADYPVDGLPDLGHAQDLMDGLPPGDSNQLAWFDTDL
As to the kind of experiment: Fluorescence polarization IC50 (beta-catenin / 5FAM-TCF4 10-53 competition). Format: binding. A general note: In fluorescence polarisation assays a small probe gives low polarisation when free and higher when bound to something large.

The nature of another series: CHI Log D procedure. In kind it is physicochemical. As to conditions: pH 7.4.
[2] abbreviates: fluorescence polarization, beta-catenin, read-out: FP EC50.

Turning to `CC(=O)N1CCC[C@]12CC=CCCCC1(CCCC=CCCCOC(=O)N3CC[C@@](C(=O)N[C@@H](Cc4ccsc4)C(=O)N[C@@H](Cc4csc5ccccc45)C(=O)N[C@@H](C)C(N)=O)(C3)NC(=O)[C@H](CC(N)=O)NC(=O)[C@H](Cc3ccccc3)NC(=O)[C@H](C)NC(=O)[C@H](C)NC(=O)[C@H](CN(CC(=O)O)CC(F)(F)F)NC(=O)[C@H](CC(=O)O)NC1=O)NC(=O)[C@H](CC(C)(C)C)NC(=O)[C@H](CC(=O)O)NC2=O` (stereo partly drawn) [I-944, Ac-PL3-Asp-Npg-B5-Asp-TfeGA-Ala-Ala-Phe-Asn-PyrS2-3Thi-BztA-Ala-NH2], the IC50 in series [1] (setting [2]) and in series [1] (read-out: beta-Catenin FP IC50) was 761 nM each time. Further, in the series “CHI Log D procedure”, the “CHI Log D” value amounted to 1.982.
Consider `CC(=O)N1CCC[C@]12CC=CCCCC1(CCCC=CCCCOC(=O)N3CC[C@@](C(=O)N[C@@H](Cc4ccsc4)C(=O)N[C@@H](Cc4csc5ccccc45)C(=O)N[C@@H](C)C(N)=O)(C3)NC(=O)[C@H](CC(N)=O)NC(=O)[C@H](Cc3ccccc3)NC(=O)[C@H](C)NC(=O)[C@H](C)NC(=O)[C@H](CN(CC(=O)O)CC(F)(F)F)NC(=O)[C@H](CC(=O)O)NC1=O)NC(=O)[C@H](CC(C)(C)C)NC(=O)[C@H](CC(=O)O)NC2=O` (stereo partly drawn) [I-945, Ac-PL3-Asp-Npg-B5-Asp-TfeGA-Ala-Ala-Phe-Asn-PyrS2-3Thi-BztA-Ala-NH2], for which the IC50 in series [1] (setting [2]) and in series [1] (read-out: beta-Catenin FP IC50) was 1080 nM throughout. The “CHI Log D” value in “CHI Log D procedure” amounted to 2.104.
Consider `CC(=O)N1CCC[C@]12CC=CCCCC1(CCCC=CCCCOC(=O)N3CC[C@@](C(=O)N[C@@H](Cc4ccsc4)C(=O)N[C@@H](Cc4csc5ccccc45)C(=O)N[C@@H](Cc4ccc(O)cc4)C(N)=O)(C3)NC(=O)[C@H](CC(N)=O)NC(=O)[C@H](Cc3ccccc3)NC(=O)[C@H](C)NC(=O)[C@H](C)NC(=O)[C@H](CN(CC(=O)O)CC(F)(F)F)NC(=O)[C@H](CC(=O)O)NC1=O)NC(=O)[C@H](CC(C)(C)C)NC(=O)[C@H](CC(=O)O)NC2=O` (stereo partly drawn) [I-952, Ac-PL3-Asp-Npg-B5-Asp-TfeGA-Ala-Ala-Phe-Asn-PyrS2-3Thi-BztA-Tyr-NH2], for which the IC50 in series [1] (setting [2]) and in series [1] (read-out: beta-Catenin FP IC50) was 1210 nM throughout. The “CHI Log D” value in the series “CHI Log D procedure” is reported as 1.975.
Take `CC(=O)N1CCC[C@]12CC=CCCCC1(CCCC=CCCCOC(=O)N3CC[C@@](C(=O)N[C@@H](Cc4ccsc4)C(=O)N[C@@H](Cc4csc5ccccc45)C(=O)N[C@@H](CO)C(N)=O)(C3)NC(=O)[C@H](Cc3ccccc3)NC(=O)[C@H](Cc3ccccc3)NC(=O)[C@H](C)NC(=O)[C@H](C)NC(=O)[C@H](CN(CC(=O)O)CC(F)(F)F)NC(=O)[C@H](CC(=O)O)NC1=O)NC(=O)[C@H](CC(C)(C)C)NC(=O)[C@H](CC(=O)O)NC2=O` (stereo partly drawn) [I-962, Ac-PL3-Asp-Npg-B5-Asp-TfeGA-Ala-Ala-Phe-Phe-PyrS2-3Thi-BztA-Ser-NH2]: the IC50 in series [1] (setting [2]) and in series [1] (read-out: beta-Catenin FP IC50) was 407 nM in each case. Besides, the “CHI Log D” value in the series “CHI Log D procedure” is 2.046.
Consider `CC(=O)N1CCC[C@]12CC=CCCCC1(CCCC=CCCCOC(=O)N3CC[C@@](C(=O)N[C@@H](Cc4ccsc4)C(=O)N[C@@H](Cc4csc5ccccc45)C(=O)N[C@@H](CO)C(N)=O)(C3)NC(=O)[C@H](Cc3ccccc3)NC(=O)[C@H](Cc3ccccc3)NC(=O)[C@H](C)NC(=O)[C@H](C)NC(=O)[C@H](CN(CC(=O)O)CC(F)(F)F)NC(=O)[C@H](CC(=O)O)NC1=O)NC(=O)[C@H](CC(C)(C)C)NC(=O)[C@H](CC(=O)O)NC2=O` (stereo partly drawn) [I-963, Ac-PL3-Asp-Npg-B5-Asp-TfeGA-Ala-Ala-Phe-Phe-PyrS2-3Thi-BztA-Ser-NH2], for which the IC50 in series [1] (setting [2]) and in series [1] (read-out: beta-Catenin FP IC50) was 402 nM in each case. In the series “CHI Log D procedure”, the “CHI Log D” value was determined as 2.117.
Consider `CCN(CC(=O)O)C[C@@H]1NC(=O)[C@H](CC(=O)O)NC(=O)C2(CCCC=CCCCOC(=O)N3CC[C@@](C(=O)N[C@@H](Cc4ccsc4)C(=O)N[C@@H](Cc4csc5ccccc45)C(=O)N[C@@H](CCC(N)=O)C(N)=O)(C3)NC(=O)[C@H](Cc3ccccc3)NC(=O)[C@H](Cc3ccccc3)NC(=O)[C@H](C)NC(=O)[C@H](C)NC1=O)CCCC=CC[C@]1(CCCN1C(C)=O)C(=O)N[C@@H](CC(=O)O)C(=O)N[C@@H](CC(C)(C)C)C(=O)N2` (stereo partly drawn) [I-970, Ac-PL3-Asp-Npg-B5-Asp-EtGA-Ala-Ala-Phe-Phe-PyrS2-3Thi-BztA-Gln-NH2], for which the IC50 in series [1] (setting [2]) and in series [1] (read-out: beta-Catenin FP IC50) was 1360 nM in each case. For the same compound, the “CHI Log D” value in “CHI Log D procedure” is 1.853.
Take `CC(=O)N1CCC[C@]12CC=CCCCC1(CCCC=CCCCOC(=O)N3CC[C@@](C(=O)N[C@@H](Cc4ccsc4)C(=O)N[C@@H](Cc4csc5ccccc45)C(=O)N[C@@H](CCC(N)=O)C(N)=O)(C3)NC(=O)[C@H](CO)NC(=O)[C@H](Cc3ccccc3)NC(=O)[C@H](C)NC(=O)[C@H](C)NC(=O)[C@H](Cc3cccc(C(=O)O)c3)NC(=O)[C@H](CC(=O)O)NC1=O)NC(=O)[C@H](CC(C)(C)C)NC(=O)[C@H](CC(=O)O)NC2=O` (stereo partly drawn) [I-978, Ac-PL3-Asp-Npg-B5-Asp-3COOHF-Ala-Ala-Phe-Ser-PyrS2-3Thi-BztA-Gln-NH2]: the IC50 in series [1] (setting [2]) and in series [1] (read-out: beta-Catenin FP IC50) was 112 nM throughout. Further, the “CHI Log D” value in “CHI Log D procedure” was found to be 1.745.
In the case of `CC(=O)N1CCC[C@]12CC=CCCCC1(CCCC=CCCCOC(=O)N3CC[C@@](C(=O)N[C@@H](Cc4ccsc4)C(=O)N[C@@H](Cc4csc5ccccc45)C(=O)N[C@@H](CCC(N)=O)C(N)=O)(C3)NC(=O)[C@H](CO)NC(=O)[C@H](Cc3ccccc3)NC(=O)[C@H](C)NC(=O)[C@H](C)NC(=O)[C@H](Cc3cccc(C(=O)O)c3)NC(=O)[C@H](CC(=O)O)NC1=O)NC(=O)[C@H](CC(C)(C)C)NC(=O)[C@H](CC(=O)O)NC2=O` (stereo partly drawn) [I-979, Ac-PL3-Asp-Npg-B5-Asp-3COOHF-Ala-Ala-Phe-Ser-PyrS2-3Thi-BztA-Gln-NH2], the IC50 in series [1] (setting [2]) and in series [1] (read-out: beta-Catenin FP IC50) was 240 nM throughout. In addition, the “CHI Log D” value in “CHI Log D procedure” is 1.809.
Turning to `CC(=O)N1CCC[C@]12CC=CCCCC1(CCCC=CCCCOC(=O)N3CC[C@@](C(=O)N[C@@H](Cc4ccccc4Cl)C(=O)N[C@@H](Cc4csc5ccccc45)C(=O)N[C@@H](CO)C(N)=O)(C3)NC(=O)[C@H](CC(C)C)NC(=O)[C@H](Cc3ccccc3)NC(=O)[C@H](C)NC(=O)[C@H](C)NC(=O)[C@H](CC(=O)O)NC(=O)[C@H](CC(=O)O)NC1=O)NC(=O)[C@H](CC(C)(C)C)NC(=O)[C@H](CC(=O)O)NC2=O` (stereo partly drawn) [I-1065, Ac-PL3-Asp-Npg-B5-Asp-Asp-Ala-Ala-Phe-Leu-PyrS2-2C1F-BztA-Ser-NH2], the IC50 in series [1] (setting [2]) and in series [1] (read-out: beta-Catenin FP IC50) was 520 nM in each case. The “CHI Log D” value in the series “CHI Log D procedure” turned out to be 2.044.
For the compound `CC(=O)N1CCC[C@]12CC=CCCCC1(CCCC=CCCCOC(=O)N3CC[C@@](C(=O)N[C@@H](Cc4ccccc4Cl)C(=O)N[C@@H](Cc4csc5ccccc45)C(=O)N[C@@H](CO)C(N)=O)(C3)NC(=O)[C@H](CC(C)C)NC(=O)[C@H](Cc3ccccc3)NC(=O)[C@H](C)NC(=O)[C@H](C)NC(=O)[C@H](CCC(=O)O)NC(=O)[C@H](CC(=O)O)NC1=O)NC(=O)[C@H](CC(C)(C)C)NC(=O)[C@H](CC(=O)O)NC2=O` (stereo partly drawn) [I-1067, Ac-PL3-Asp-Npg-B5-Asp-Glu-Ala-Ala-Phe-Leu-PyrS2-2C1F-BztA-Ser-NH2], the IC50 in series [1] (setting [2]) and in series [1] (read-out: beta-Catenin FP IC50) was 517 nM throughout. In addition, in the series “CHI Log D procedure”, the “CHI Log D” value came out at 2.147.
In the case of `CC(=O)N1CCC[C@]12CC=CCCCC1(CCCC=CCCCOC(=O)N3CC[C@@](C(=O)N[C@@H](Cc4ccccc4Cl)C(=O)N[C@@H](Cc4csc5ccccc45)C(=O)N[C@@H](CCC(N)=O)C(N)=O)(C3)NC(=O)[C@H](CC(C)C)NC(=O)[C@H](Cc3ccccc3)NC(=O)[C@H](C)NC(=O)[C@H](C)NC(=O)[C@H](CC(=O)O)NC(=O)[C@H](CC(=O)O)NC1=O)NC(=O)[C@H](CC1CCCCC1)NC(=O)[C@H](CC(=O)O)NC2=O` (stereo partly drawn) [I-1076, Ac-PL3-Asp-Cha-B5-Asp-Asp-Ala-Ala-Phe-Leu-PyrS2-2C1F-BztA-Gln-NH2], the IC50 in series [1] (setting [2]) and in series [1] (read-out: beta-Catenin FP IC50) was 448 nM in each case. The “CHI Log D” value in “CHI Log D procedure” is given as 2.049.
Consider `CC(=O)N1CCC[C@]12CC=CCCCC1(CCCC=CCCCCCC[C@@](C)(C(=O)N[C@@H](Cc3ccccc3Cl)C(=O)N[C@@H](Cc3csc4ccccc34)C(=O)N[C@@H](C(N)=O)[C@H](C)O)NC(=O)[C@H]([C@@H](C)O)NC(=O)[C@H](Cc3ccccc3)NC(=O)[C@H](C)NC(=O)[C@H](C)NC(=O)[C@H](CCC(=O)O)NC(=O)[C@H](CC(=O)O)NC1=O)NC(=O)[C@H](CC(C)(C)C)NC(=O)[C@H](CC(=O)O)NC2=O` (stereo partly drawn) [I-1094, Ac-PL3-Asp-Npg-B5-Asp-Glu-Ala-Ala-Phe-Thr-S8-2C1F-BztA-dThr-NH2], for which the IC50 in series [1] (setting [2]) and in series [1] (read-out: beta-Catenin FP IC50) was 46 nM in each case. In “CHI Log D procedure”, the “CHI Log D” value worked out at 3.271.
